Measured values reported in US20230000876A1, “TREATING CANCERS WITH A CYCLIN-DEPENDENT KINASE INHIBITOR” (Nuvation Bio Inc., priority 2021, published 2023).
Where two headings read alike, the source gives them in different places.

Tests used:
[1] = tested on: xMDA-MB-361 breast tumor; assay: xMDA-MB-361 breast tumor model (ER-positive/HER2-positive); format: in vivo, female BALB/c nude mice; conditions: Group 2: Fulvestrant 1 mg/dose SC QW*42 days
Procedure: Trastuzumab, tucatinib, Compound (I), and fulvestrant were tested in a xMDA-MB-361 breast tumor model (ER-positive/HER2-positive) on female BALB/c nude mice.

[2] = tested on: MCF-7 tumors; format: in vivo; conditions: 1/3/5 mg/dose SC QW, PG-D49
Procedure: The in vivo anti-tumor efficacy of the compound of formula (I) either alone or in combination with fulvestrant on MCF-7 breast tumor model on female Balb/c nude mice was evaluated. The protocol was he same as described in Example 1 with the exception that the dosing schedule of fulvestrant was modified.

[3] = tested on: xBT474 breast tumor; assay: xBT474 breast tumor model (ER-negative/HER2-positive); conditions: Group 2: Fulvestrant 1 mg/dose SC QW*28 days
[4] = tested on: MCF-7 tumors; format: in vivo; conditions: for T/C / TGI: PG-D37
Procedure: The in vivo anti-tumor efficacy of the compound of formula (I) either alone or in combination with fulvestrant on MCF-7 breast tumor model on female Balb/c nude mice was assessed. MCF-7 cells are a breast cancer cell line that is HR+HER2−. See Booms et al., (2019) Cancer Epidemiol Biomarkers Prev 28(10); 1735-1745, which is hereby incorporated by reference.
The study was in two parts. The first part was designed to measure tumor growth inhibition (TGI). The second part was used to measure pharmacokinetic and pharmacodynamic (PKPD) parameters. In the studies, the compound of formula (I) was dosed orally (po) and fulvestrant was dosed subcutaneously. […]
The MCF-7 tumor cells were maintained in vitro in MEM supplemented with 10% heat inactivated fetal bovine serum at 37° C. in an atmosphere of 5% CO2 in air. The tumor cells were routinely subcultured twice weekly. The cells growing in an exponential growth phase were harvested and counted for tumor inoculation.
Each mouse was inoculated subcutaneously at the right flank with MCF-7 (10*10^6) cells in 0.2 mL of PBS mixed with Matrigel (50:50) for tumor development. 17β-Estradiol (0.36 mg, 60-day release) pellets (Innovative Research of America Cat. No.: SE-121, pellet size: 3.0 mm) were implanted 2 days before cell inoculation.
In TGI part, the treatments was started on day 7 after cell inoculation when the average tumor volume reaches 173 mm^3. 72 mice were selected and assigned into 9 groups. The testing articles were administrated to the mice according to Table 1.
For TGI part, the major endpoint was to see if the tumor growth could be delayed or mice could be cured. Tumor size was measured twice weekly in two dimensions using a caliper, and the volume was expressed in mm^3 using the formula: V=0.5 a×b^2 where a and b are the long and short diameters of the tumor, respectively. The tumor sizes are then used for the calculation of T/C and TGI values.
The T/C value (in percent) is an indication of antitumor effectiveness; T and C are the mean volume of the treated and control groups, respectively, on a given day.
TGI was calculated for each group using the formula: TGI (%)=[1−(Ti−T0)/(Vi−V0)]×100; Ti is the average tumor volume of a treatment group on PG-Di, T0 is the average tumor volume of the treatment group on the day of treatment start, Vi is the average tumor volume of the vehicle control group on the same day with Ti, and V0 is the average tumor volume of the vehicle group on the day of treatment start.
For comparison among of tumor volume of groups 2-9 and group 1, a one-way ANOVA was performed. All the analysis were conducted using GraphPad Prism software. p<0.05 was considered to be statistically significant.

C[C@]12CC[C@@H]3c4ccc(O)cc4C[C@@H](CCCCCCCCC[S+]([O-])CCCC(F)(F)C(F)(F)F)[C@H]3[C@@H]1CC[C@@H]2O (stereo partly shown) [Fulvestrant, reference compound]
Tumor volume (mean ± SEM) ([1]; Day 0): 157 ± 13 mm^3 | Tumor volume (mean ± SEM) ([1]; Day 3): 185 ± 11 mm^3 | Tumor volume (mean ± SEM) ([1]; Day 7): 226 ± 28 mm^3 | Tumor volume (mean ± SEM) ([1]; Day 10): 321 ± 53 mm^3 | Tumor volume (mean ± SEM) ([1]; Day 14): 489 ± 101 mm^3 | Tumor volume (mean ± SEM) ([1]; Day 17): 588 ± 153 mm^3 | Tumor volume (mean ± SEM) ([1]; Day 21): 773 ± 204 mm^3 | Tumor volume (mean ± SEM) ([1]; Day 24): 890 ± 235 mm^3 | Tumor volume (mean ± SEM) ([1]; Day 28): 1022 ± 256 mm^3 | Tumor volume (mean ± SEM) ([1]; Day 31): 1113 ± 293 mm^3 | Tumor volume (mean ± SEM) ([1]; Day 35): 1192 ± 330 mm^3 | Tumor volume (mean ± SEM) ([1]; Day 38): 1300 ± 344 mm^3 | Tumor volume (mean ± SEM) ([1]; Day 42): 1396 ± 356 mm^3 | T/C [2]: 38.19% | TGI [2]: 71.50% | Tumor Size [2]: 451 mm^3 | Tumor volume (mean ± SEM) ([3]; Day 0): 146 ± 10 mm^3 | Tumor volume (mean ± SEM) ([3]; Day 4): 188 ± 26 mm^3 | Tumor volume (mean ± SEM) ([3]; Day 7): 187 ± 14 mm^3 | Tumor volume (mean ± SEM) ([3]; Day 11): 311 ± 55 mm^3 | Tumor volume (mean ± SEM) ([3]; Day 14): 391 ± 55 mm^3 | Tumor volume (mean ± SEM) ([3]; Day 18): 468 ± 69 mm^3 | Tumor volume (mean ± SEM) ([3]; Day 21): 532 ± 79 mm^3 | Tumor volume (mean ± SEM) ([3]; Day 25): 617 ± 93 mm^3 | Tumor volume (mean ± SEM) ([3]; Day 28): 741 ± 113 mm^3 | Tumor volume (mean ± SEM) ([3]; Day 32): 750 ± 115 mm^3 | Tumor volume (mean ± SEM) ([3]; Day 35): 797 ± 121 mm^3 | Tumor volume (mean ± SEM) ([3]; Day 39): 800 ± 131 mm^3 | Tumor volume (mean ± SEM) ([3]; Day 42): 843 ± 146 mm^3 | Tumor volume (mean ± SEM) ([3]; Day 46): 816 ± 138 mm^3 | T/C ([4]; 1 mg/dose QW): 42.68% | TGI ([4]; 1 mg/dose QW): 62.74% | Tumor volume (mean ± SEM) ([4]; 1 mg/dose SC QW, day 0): 173 ± 12 mm^3 | Tumor volume (mean ± SEM) ([4]; 1 mg/dose SC QW, day 3): 206 ± 10 mm^3 | Tumor volume (mean ± SEM) ([4]; 1 mg/dose SC QW, day 6): 272 ± 20 mm^3 | Tumor volume (mean ± SEM) ([4]; 1 mg/dose SC QW, day 9): 315 ± 33 mm^3 | Tumor volume (mean ± SEM) ([4]; 1 mg/dose SC QW, day 13): 389 ± 50 mm^3 | Tumor volume (mean ± SEM) ([4]; 1 mg/dose SC QW, day 16): 472 ± 47 mm^3 | Tumor volume (mean ± SEM) ([4]; 1 mg/dose SC QW, day 20): 595 ± 87 mm^3 | Tumor volume (mean ± SEM) ([4]; 1 mg/dose SC QW, day 23): 623 ± 93 mm^3 | Tumor volume (mean ± SEM) ([4]; 1 mg/dose SC QW, day 27): 697 ± 104 mm^3 | Tumor volume (mean ± SEM) ([4]; 1 mg/dose SC QW, day 30): 727 ± 116 mm^3 | Tumor volume (mean ± SEM) ([4]; 1 mg/dose SC QW, day 34): 829 ± 130 mm^3 | Tumor volume (mean ± SEM) ([4]; 1 mg/dose SC QW, day 37): 856 ± 140 mm^3 | Tumor volume (mean ± SEM) ([4]; 1 mg/dose SC QW, day 41): 859 ± 142 mm^3 | Tumor volume (mean ± SEM) ([4]; 1 mg/dose SC QW, day 44): 808 ± 164 mm^3 | Tumor volume (mean ± SEM) ([4]; 1 mg/dose SC QW, day 48): 623 ± 104 mm^3 | T/C ([4]; 3 mg/dose QW): 15.70% | TGI ([4]; 3 mg/dose QW): 92.26% | Tumor volume (mean ± SEM) ([4]; 3 mg/dose SC QW, day 0): 173 ± 13 mm^3 | Tumor volume (mean ± SEM) ([4]; 3 mg/dose SC QW, day 3): 181 ± 9 mm^3 | Tumor volume (mean ± SEM) ([4]; 3 mg/dose SC QW, day 6): 205 ± 16 mm^3 | Tumor volume (mean ± SEM) ([4]; 3 mg/dose SC QW, day 9): 240 ± 12 mm^3 | Tumor volume (mean ± SEM) ([4]; 3 mg/dose SC QW, day 13): 310 ± 25 mm^3 | Tumor volume (mean ± SEM) ([4]; 3 mg/dose SC QW, day 16): 337 ± 33 mm^3 | Tumor volume (mean ± SEM) ([4]; 3 mg/dose SC QW, day 20): 285 ± 32 mm^3 | Tumor volume (mean ± SEM) ([4]; 3 mg/dose SC QW, day 23): 288 ± 44 mm^3 | Tumor volume (mean ± SEM) ([4]; 3 mg/dose SC QW, day 27): 275 ± 35 mm^3 | Tumor volume (mean ± SEM) ([4]; 3 mg/dose SC QW, day 30): 294 ± 35 mm^3 | Tumor volume (mean ± SEM) ([4]; 3 mg/dose SC QW, day 34): 314 ± 48 mm^3 | Tumor volume (mean ± SEM) ([4]; 3 mg/dose SC QW, day 37): 315 ± 50 mm^3 | Tumor volume (mean ± SEM) ([4]; 3 mg/dose SC QW, day 41): 329 ± 54 mm^3 | Tumor volume (mean ± SEM) ([4]; 3 mg/dose SC QW, day 44): 294 ± 48 mm^3 | Tumor volume (mean ± SEM) ([4]; 3 mg/dose SC QW, day 48): 228 ± 29 mm^3
